Patent US11325892B2, “Compounds and methods for treating cancer” (Mayo Foundation for Medical Education and Research, priority 2014, dated 2022)

Columns and labels:
Assay type in all cases: cell-based
[1] = test system: PARP cleavage, CHOP, s-XBP1, HERPUD1 in ATC cells; assay: PARP cleavage and UPR protein expression in ATC cells; conditions: EC50 dose for 72H; all three ATC cells; abrogated with OA
Description: (§1) Protein extraction and western blot analysis was performed as previously described (Copland J A, Marlow L A, Kurakata S, et al. Novel high-affinity PPARgamma agonist alone and in combination with paclitaxel inhibits human anaplastic thyroid carcinoma tumor growth via p21WAF1/CIP1. Oncogene. Apr 13 2006; 25(16):2304-2317). Primary antibodies included SCD1 (Sigma-Aldrich, #HPA012107), BiP (Cell Signaling, #3183), CHOP (Cell Signaling, #2895), sXBP1(Santa Cruz Biotechnology, #sc-7160), PARP(Cell Signaling, #9542), and β-actin (Sigma-Aldrich, #A5441).
Cells were plated in 4-chamber slides (Thermo Scientific) prior to drug treatment. […]
Exogenous application of MUFAs, such as oleic or palmitoleic acid, can rescue the proliferative defects generated by SCD1 inhibition as these are the primary products of SCD1 enzymatic activity (Roongta U V, Pabalan J G, Wang X, Ryseck R P, Fargnoli J, Henley B J, Yang W P, Zhu J, Madireddi M T, Lawrence R M, Wong T W, Rupnow B A. Cancer cell dependence on unsaturated fatty acids implicates stearoyl-CoA desaturase as a target for cancer therapy. Mol Cancer Res. 2011; 9(11):1551-61). […] Transcriptional upregulation of UPR markers including GADD45a (Growth arrest and DNA damage inducible transcript 1, DDIT1), DDIT3 (DNA damage inducible transcript 3, CHOP), and HERPUD1 homocysteine-inducible, ER stress inducible, ubiquitin-like-1) were evaluated by QPCR.

[2] = test system: ATC cells; assay: Proliferative dose response of thyroid cells; conditions: ATC cells; for proliferation: 72H treatment; for 50% effective concentrations (EC50): proliferation
Description: (§2) Cells were seeded at 5,000 cells/well in clear-bottom 96-well plates in triplicate in Maintenance Media. Drug treatment was applied at a concentration of 1:1000 in reduced serum (3%) Maintenance Media. After 72 hours, cells were washed with PBS, and stored at −80° C. prior to analysis using CyQuant® Proliferation Analysis Kit (Invitrogen) as per manufacturers' protocol for relative fluorescence units. Alternatively, cells were plated 2×10^5/well in 12-well plates (Midwest Scientific) in triplicate prior to drug treatment. After 120 hour treatment, cell number was established using a Coulter Particle Counter (Beckman). Or, cells were plated (0.5 or 1×10^5/well) in 24-well plates (Midwest Scientific), 3×. After 72 hour treatment, cell number established using Coulter Particle Counter (Beckman). Oleic acid-albumin (Sigma Aldrich) was added to media at 5 μM, and was applied adjuvant to drug treatment. Drug stocks were prepared in DMSO (Sigma) at 1000×. EC50 dosing per cell line was calculated using CalcuSyn® analytical software.
The efficacy of pharmacologic inhibition of this enzyme on tumor cell proliferation after a 72H treatment was determined, using A939572-a commercially available small molecule SCD1 inhibitor (Xin Z, Zhao H, Serby M D, Liu B, Liu M, Szczepankiewicz B G, Nelson L T, Smith H T, Suhar T S, Janis R S, Cao N, Camp H S, Collins C A, Sham H L, Surowy T K, Liu G. Discovery of piperidine-aryl urea-based stearoyl-CoA desaturase 1 inhibitors. Bioorg Med Chem Lett. 2008; 18(15):4298-302). […] Despite conspicuous SCD1 expression in 4 of the 5 FTC cells tested, no response to A939572 was observed (FIG. 10D).
THJ29T, THJ16T, and KTC2 were treated with carfilzomib (FIG. 12A) or bortezomib for 72H in order to establish EC50 values. […] Anti-proliferative drug synergy was evaluated in THJ29T and THJ16T treated with either A939572 or MF-438 in combination with either bortezomib or carfilzomib for 48H. Synergy was assessed using CalcuSyn analytical software, which determines the combination index (CI) based on the Chou-Talalay method where CI values >1 represent an antagonistic effect and values <1 represent synergy, and lower values signify enhanced synergy (Chou T C, Talalay P. Analysis of Combined Drug Effects—a New Look at a Very Old Problem. Trends in Pharmacological Sciences. 1983; 4(11):450-4).

[3] = test system: THJ29T, THJ16T and KTC2 cells; assay: Oleic acid rescue of proliferation in ATC cells; conditions: EC50 dose for 72H with 5 μM oleic acid
Description: as §2, with “software. […]” for “software.”

[4] = test system: PARP cleavage and CHOP expression in THJ29T and THJ16T; assay: Western blot for PARP cleavage and CHOP expression, combinatorial therapy; conditions: EC50 doses, 48H
Description: as §1
THJ29T and THJ16T treated for 48H with EC50 doses of either A939572 or MF-438 in combination with either carfilzomib or bortezomib were probed for PARP cleavage and CHOP expression, both markers indicative of apoptosis (FIGS. 14A-B, 15A-B). […] Cell death was additionally examined via flow cytometry using propidium iodide staining. THJ29T and THJ16T were treated for 48H with EC50 doses of either A939572 or MF-438 in combination with either carfilzomib or bortezomib prior to staining and analysis.

Compound	apoptosis as evaluated by PARP cleavage [1]	proliferation [2]	50% effective concentrations (EC50) [2]	rescue of proliferation with OA [3]	PARP cleavage as compared to DMSO control [4]
CNC(=O)c1cccc(NC(=O)N2CCC(Oc3ccccc3Cl)CC2)c1 [A939572]	induced apoptosis	dose-dependent decrease in proliferation	low nanomolar dose range	complete rescue of proliferation	significant PARP cleavage
Cc1nnc(-c2ccc(N3CCC(Oc4ccccc4C(F)(F)F)CC3)nn2)s1 [MF-438, 2-methyl-5-(6-(4-(2-(trifluoromethyl)phenoxy)piperidin-1-yl)pyridazin-3-yl)-1,3,4-thiadiazole]	–	dose-dependent decrease in ATC proliferation	low nanomolar dose range	complete rescue of proliferation	significant PARP cleavage
